Source: US11272706B2, “Anti-resistance method” (UPL LIMITED, priority 2017, dated 2022)
Values after ≈ are worked out from the molar mass of the structure shown. Where two headings read alike, the source gives them in different places.

Key:
[1] = system: Drechsiera siccans; experiment: 50% inhibition of mycelium growth (IC50), five isolates, DMI fungicides; format: cell-based
Description: In the 2003 wheat crop for the first time, there was complaint of leaf spot control failure after continuous use of fungicides DMI+QoI, for 20 years. Until that time there were few reports of the sensitivity of the fungus that is causal agent of yellow spot to fungicides (Stoke, 2006; Tonin, 2009; Beard et al, 2009; Patel et al, 2012). The reference concentrations of sensitivity of Dtr to fungicides found in the literature were 0.17 mg/L in average for the epoxiconazole, propiconazole and tebuconazole. […] Comparing these values with the sensitivity of isolates of Brazil proves the reduced sensitivity occurring here (see Table 3).
Average of two experiments.

[2] = system: soybean rust; design: Control of soybean rust, crop 2005/06 / Control of soybean rust, crop 2012/13: concentration or dose not given beside the values; details: cited from earlier work; for Reduction (%) of control: 2005/06 versus 2012/13 crop; for Control of soybean rust, crop 2005/06 / Control of soybean rust, crop 2012/13: applied preventively; for Control of soybean rust, crop 2005/06: 2005/06 crop; for Control of soybean rust, crop 2012/13: 2012/13 crop
[3] = system: Dtr (Drechsiera tritici-repentis); details: literature value, cited from earlier work
[4] = system: soybean rust; experiment: Cooperative tests of fungicides (Embrapa Soybean): soybean rust control over crops, FIGS. 1-6; format: in vivo, Phakopsora pachyrhizi; details: from regression equation over crops; starting crop differs per fungicide
Source text: An example that reinforces the reported fact is the gradual reduction of tebuconazole control over the crops using it covering the period beginning in 2004/05 to 2013/14 (as FIG. 1).
The results of cooperative tests of fungicides, coordinated by Embrapa Soybean, Londrina, can bring the answer to these questions. The following graphs of FIGS. 2, 3, 4 and 5 show the reduction of rust control by fungicide mixtures traditionally used in soybeans over the past crops.
FIG. 1. Reduced soybean rust control by tebuconazole over […]. (Source: Cooperative tests of fungicides).
FIG. 2. Control Reduction of soybean rust by cyproconazole+azoxystrobin mixture over six crops. (Source: Cooperative tests of fungicides).
FIG. 3. Control Reduction of soybean rust by cyproconazole+picoxystrobin mixture over six crops. (Source: Cooperative tests of fungicides).
FIG. 4. Reduction control of soybean rust by epoxiconazole+pyraclostrobin mixture over six crops. (Source: Cooperative tests of fungicides).
FIG. 5. Average reduction of soybean rust control by mixtures of cyproconazole+azoxystrobin, cyproconazole+picoxystrobin and epoxiconazole+pyraclostrobin over six crops. (Source: Cooperative tests of fungicides).
FIG. 6. Control Reduction of soybean rust for azoxystrobin over six crops. (Source: Cooperative tests of fungicides).

[5] = system: Drechsiera tritici-repentis; experiment: 50% inhibition of spore germination (CI50), five isolates, strobilurin fungicides; format: cell-based; details: for Reduction factor of the sensitivity, isolate 01/QTZ: CI50 of sensitivity reference 0.75 mg/L; for Reduction factor of the sensitivity, Average / Reduction factor of the sensitivity, isolate 02/ONX / Reduction factor of the sensitivity, isolate 03/HZT / Reduction factor of the sensitivity, isolate 04/GUA / Reduction factor of the sensitivity, isolate 05/CD: reference 0.75 mg/L
Description: However, the highest reduction of sensitivity of the Dtr to fungicides and what better explains the control failure claimed by producers is the CI50 obtained for QoIs fungicides (see Table 4).
Lowercase compare average in the column and capital letters in the line. Average of two experiments.
Taking as Cl50 standard of sensitivity, 0.75 mg/L (Table 4) obtained for pyraclostrobin, it is calculated the reduction factor of the sensitivity of the Dtr to QoIs fungicides (see Table 5).
Cl50 of sensitivity reference of 0.75 mg/L.
When the SRF is close to 1.0 there is no reduction of sensitivity. However, if >1 with different magnitude, it indicates reduced sensitivity of fungi to fungicides. In this case SRF ranged from 1.04 to >53 (see Table 5).

[6] = system: soybean rust; details: 2013/14 crop; cited from earlier work
[7] = system: soybean rust; details: crop 2010/11, cited from earlier work; for Control (%): evaluated by AUDPC; for Severity (%): untreated control 74.0
[8] = system: wheat leaf spots; experiment: Control of wheat leaf spots by DMI + QoI mixtures with or without mancozeb; format: in vivo, Drechsiera tritici-repentis; details: various locations in Brazil
Source text: (§1) However, its greatest contribution was proven when added to commercial blends bringing control to values of up to 80%, similar efficiency of mixtures “triazole+strobilurin” at the beginning of its use.
With the addition of mancozeb, by using the method anti-resistance described in the present invention, the control has been quite improved (33.3% also as shown in Table 8).

[9] = system: soybean rust; experiment: Field experiments at various locations in Brazil: mancozeb alone or added to commercial mixtures against soybean rust; format: in vivo, Phakopsora pachyrhizi; details: mancozeb applied alone
Source text: as §1
Therefore, the present invention used the same strategy as the solution to recover the original control levels (>80%) and make the useful life of the fungicides longer in controlling the target disease of the invention. This is because, mancozeb, being a multi-site protective fungicide and presenting a broad spectrum of action, will also contribute to the control of other diseases in soybean and also in wheat.
A study was conducted to determine the contribution of the mancozeb addition to mixtures of “strobilurin+triazoles.” The experiments were conducted in the field, in nine different locations, where it was determined the fungi toxicity of mancozeb to soybean rust.
Two doses were tested (1.5 and 2.0 kg/ha) with various numbers of mancozeb applications. The effect of mancozeb (1.5 kg/ha), incorporated into commercial mixtures was also tested.
The experiments were conducted with soybean cultivar Monsoy 9144 RR. Mancozeb formulation 750 WDG (water dispersible granules) was used, commercially available, for application of mancozeb according to Tables 6 and 7.

[10] = average of five isolates, read-out: IC50 Average
[11] = isolate 01/F30, average of two experiments, read-out: IC50 isolate 01/F30
[12] = isolate 02/RZ, read-out: IC50 isolate 02/RZ
[13] = isolate 03/SF, read-out: IC50 isolate 03/SF
[14] = isolate 04/F52, read-out: IC50 isolate 04/F52
[15] = isolate 05/VQ, read-out: IC50 isolate 05/VQ
[16] = spore germination, average of five isolates
[17] = spore germination, isolate 01/QTZ, average of two experiments
[18] = spore germination, isolate 02/ONX
[19] = spore germination, isolate 03/HZT
[20] = spore germination, isolate 04/GUA
[21] = spore germination, average of five isolates, read-out: CI50 Average
[22] = spore germination, isolate 01/QTZ, average of two experiments, read-out: CI50 isolate 01/QTZ
[23] = spore germination, isolate 02/ONX, read-out: CI50 isolate 02/ONX
[24] = spore germination, isolate 03/HZT, read-out: CI50 isolate 03/HZT
[25] = spore germination, isolate 04/GUA, read-out: CI50 isolate 04/GUA

Compound	IC50 [1, 10] [mg/L]	IC50 [1, 11] [mg/L]	IC50 [1, 12] [mg/L]	IC50 [1, 13] [mg/L]	IC50 [1, 14] [mg/L]	IC50 [1, 15] [mg/L]	Reduction factor of the sensitivity, isolate 01/QTZ ([5]; isolate 01/QTZ)	Reduction factor of the sensitivity, Average ([5]; average of five isolates) [a]	Reduction factor of the sensitivity, isolate 02/ONX ([5]; isolate 02/ONX)	Reduction factor of the sensitivity, isolate 03/HZT ([5]; isolate 03/HZT)	Reduction factor of the sensitivity, isolate 04/GUA ([5]; isolate 04/GUA)	Reduction factor of the sensitivity, isolate 05/CD [5]	also measured
Fc1ccc([C@]2(Cn3cncn3)O[C@H]2c2ccccc2Cl)cc1 (racemic) [Epoxiconazole]	0.33 (≈ 1 µM)	0.28 (≈ 0.849 µM)	0.28 (≈ 0.849 µM)	0.4 (≈ 1.21 µM)	0.32 (≈ 0.97 µM)	0.4 (≈ 1.21 µM)	–	–	–	–	–	–	Reduction (%) of control [2]: 50.0%; Control of soybean rust, crop 2005/06 [2]: 80.0%; Control of soybean rust, crop 2012/13 [2]: 40.0%; IC50 (Beard et al) [3]: 0.19 mg/L (≈ 0.576 µM)
CO/C=C(/C(=O)OC)c1ccccc1Oc1cc(Oc2ccccc2C#N)ncn1 [Azoxystrobin]	–	–	–	–	–	–	A > 53 a	>53	A > 53 a	A > 53 a	A > 53 a	A > 53 a	Control efficiency reduced per year [4]: 13.8 % per year; CI50 Average [5, 16]: A > 40 a ^ mg/L; CI50 isolate 01/QTZ [5, 17]: A > 40 a mg/L; CI50 isolate 02/ONX [5, 18]: A > 40 a mg/L; CI50 isolate 03/HZT [5, 19]: A > 40 a mg/L; CI50 isolate 04/GUA [5, 20]: A > 40 a mg/L; CI50 isolate 05/CD ([5]; spore germination): A > 40 a mg/L; Control of soybean rust in the 2013/14 (last) crop [6]: 16%
CC(C1CC1)C(O)(Cn1cncn1)c1ccc(Cl)cc1 (centres unmarked) [Cyproconazole]	0.37 (≈ 1.27 µM)	0.36 (≈ 1.23 µM)	0.47 (≈ 1.61 µM)	0.32 (≈ 1.1 µM)	0.44 (≈ 1.51 µM)	0.29 (≈ 0.994 µM)	–	–	–	–	–	–	Reduction (%) of control [2]: 45.9%; Control of soybean rust, crop 2005/06 [2]: 96.0%; Control of soybean rust, crop 2012/13 [2]: 52.0%; Control (%) [7]: 38%; Severity (%) [7]: 58.1%
CO/N=C(/C(=O)OC)c1ccccc1COc1ccccc1C [Kresoxim methyl]	–	–	–	–	–	–	A > 53 a	>53	A > 53 a	A > 53 a	A > 53 a	A > 53 a	IC50 [5, 21]: > 40 mg/L; IC50 [5, 22]: > 40 mg/L; IC50 [5, 23]: > 40 mg/L; IC50 [5, 24]: > 40 mg/L; IC50 [5, 25]: > 40 mg/L
CO/C=C(/C(=O)OC)c1ccccc1COc1cccc(C(F)(F)F)n1 [Picoxystrobin]	–	–	–	–	–	–	A > 53a	>53	A > 53 a	A > 53 a	A > 53 a	A > 53 a	CI50 Average [5, 16]: >40 a mg/L; CI50 isolate 01/QTZ [5, 17]: A > 40 a mg/L; CI50 isolate 02/ONX [5, 18]: A > 40 a mg/L; CI50 isolate 03/HZT [5, 19]: A > 40 a mg/L; CI50 isolate 04/GUA [5, 20]: A > 40 a mg/L; CI50 isolate 05/CD ([5]; spore germination): A > 40 a mg/L
CCCC1COC(Cn2cncn2)(c2ccc(Cl)cc2Cl)O1 (centres unmarked) [Propiconazole]	0.34 (≈ 0.993 µM)	0.32 (≈ 0.935 µM)	0.51 (≈ 1.49 µM)	0.3 (≈ 0.877 µM)	0.3 (≈ 0.877 µM)	0.3 (≈ 0.877 µM)	–	–	–	–	–	–	IC50 (Hunger & Brown) [3]: 0.04 mg/L (≈ 0.117 µM)
OC(Cc1ccccc1Cl)(Cn1nc[nH]c1=S)C1(Cl)CC1 (centres unmarked) [Prothioconazole]	0.21 (≈ 0.61 µM)	0.22 (≈ 0.639 µM)	< 0.1	0.26 (≈ 0.755 µM)	0.25 (≈ 0.726 µM)	0.14 (≈ 0.407 µM)	–	–	–	–	–	–	–
COC(=O)N(OC)c1ccccc1COc1ccn(-c2ccc(Cl)cc2)n1 [Pyraclostrobin]	–	–	–	–	–	–	D 1.0 b	–	B 1.13 b	C 1.04 b	E 0.77 b	A 1.37 b	IC50 ([5]; read-out: CI50 isolate 05/CD): 1.03 mg/L (≈ 2.66 µM); IC50 [5, 21]: 0.8 mg/L (≈ 2.06 µM); IC50 [5, 22]: 0.75 mg/L (≈ 1.93 µM); IC50 [5, 23]: 0.85 mg/L (≈ 2.19 µM); IC50 [5, 24]: 0.78 mg/L (≈ 2.01 µM); IC50 [5, 25]: 0.58 mg/L (≈ 1.5 µM); IC50 ([5]; taken from Table 4 as sensitivity reference, read-out: CI50 standard of sensitivity): 0.75 mg/L (≈ 1.93 µM)
CC(C)(C)C(O)(CCc1ccc(Cl)cc1)Cn1cncn1 (centres unmarked) [Tebuconazole]	0.57 (≈ 1.85 µM)	0.66 (≈ 2.14 µM)	0.49 (≈ 1.59 µM)	0.65 (≈ 2.11 µM)	0.61 (≈ 1.98 µM)	0.44 (≈ 1.43 µM)	–	–	–	–	–	–	Control efficiency reduced per year [4]: 7.2 % per year; Reduction (%) of control [2]: 32.8%; Control of soybean rust, crop 2005/06 [2]: 95.0%; Control of soybean rust, crop 2012/13 [2]: 64.0%; Control (%) [7]: 42%; Severity (%) [7]: 49.9%; IC50 (Beard et al) [3]: 0.25 mg/L (≈ 0.812 µM); IC50 (Hunger & Brown) [3]: 0.19 mg/L (≈ 0.617 µM)
CON=C(C(=O)OC)c1ccccc1CON=C(C)c1cccc(C(F)(F)F)c1 [Trifloxystrobin]	–	–	–	–	–	–	A > 53 a	>53	A > 53 a	A > 53 a	A > 53 a	A > 53 a	IC50 [5, 21]: > 40 mg/L; IC50 [5, 22]: > 40 mg/L; IC50 [5, 23]: > 40 mg/L; IC50 [5, 24]: > 40 mg/L; IC50 [5, 25]: > 40 mg/L
manganese ethylene bis(dithiocarbamate)+Zn [mancozeb]	–	–	–	–	–	–	–	–	–	–	–	–	Control of yellow spot of wheat leaf, applied alone [8]: showed the efficiency; Control of soybean rust, applied alone [9]: showed the efficiency
